Source: paper PMC3973950, “Synthesis of 5-arylidine amino-1,3,4-thiadiazol-2-[(N-substituted benzyol)]sulphonamides endowed with potent antioxidants and anticancer activity induces growth inhibition in HEK293, BT474 and NCI-H226 cells” (Medicinal Chemistry Research, 2013)

What was measured:
[1] = Superoxide anion radical scavenging (NBT/NADH/PMS); format: biochemical; conditions: Conc. ± SD; standard catechin; read-out: IC50 inhibitory concentration, Superoxide anion
Experimental: Measurement of superoxide anion scavenging activity of the synthesized compound was taken based on the method described by Nishimiki et al. ([1972]) and slightly modified. […] The reaction mixture was incubated at 25 °C for 5 min, and the absorbance at 560 nm was measured against blank samples. Catechin was used as reference compound. All the experiments were performed in triplicate, and the results were averaged. The percentage of inhibition was determined by comparing the results of control and test samples. The IC50 (nM/mL) value are depicted in Table 1.

[2] = In vitro cytotoxicity by MTT assay, HEK 293; format: cell-based, human; conditions: human, HEK 293 cells, read-out: % cytotoxicity (100 − % cell survival) of HEK 293 cell line
Procedure, shortened: (§1)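 Monolayers seeded at […] (about 10,000 per well) were treated after 24 h with the synthesized compounds and incubated three days. Viability was taken from MTT reduction, with formazan measured at 490 nm.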

[3] = test system: HEK 293, M468 and NCI-H226; assay: In vitro cytotoxicity by MTT assay, summary over all cell lines; format: cell-based; conditions: on all cell lines
Procedure, shortened: as §1

[4] = In vitro cytotoxicity by MTT assay, NCI-H226; format: cell-based; conditions: human, NCI-H226 lung cancer cells, 0.015 μM, read-out: % Cytotoxicity (100 − % cell survival) of NCI-H226 cell line
Procedure, shortened: as §1

[5] = test system: NCI-H226 (lung cancer cell line); assay: In vitro cytotoxicity by MTT assay, NCI-H226; format: cell-based; conditions: Homo sapiens, 72 h, read-out: % Cytotoxicity (100 − % cell survival) of NCI-H226 cell line; for cytotoxicity at 0.005 µM: NCI-H226, 0.005 μM; for cytotoxicity at 0.045 µM: NCI-H226, 0.045 μM; for cytotoxicity at 0.13 µM: NCI-H226, 0.13 μM; for cytotoxicity at 0.41 µM: NCI-H226, 0.41 μM; for cytotoxicity at 1.23 µM: NCI-H226, 1.23 μM; for cytotoxicity at 3.7 µM: NCI-H226, 3.7 μM; for cytotoxicity at 11.11 µM: NCI-H226, 11.11 μM; for cytotoxicity at 33.33 µM: NCI-H226, 33.33 μM; for cytotoxicity at 100 µM: NCI-H226, 100 μM
Procedure, shortened: as §1

[6] = Nitric oxide radical scavenging (sodium nitroprusside, Griess reaction); format: biochemical; conditions: Conc. ± SD; standard curcumin; read-out: IC50 inhibitory concentration, Nitric oxide radical
Experimental: Nitric oxide generated from sodium nitroprusside in aqueous solution at physiological pH interacts with oxygen to produce nitrite ions, which were measured by the Griess reaction (Marcocci et al., [1994]; Green et al., [1982]). Scavenger of nitric oxide competes with oxygen leading to reduced production of nitric oxide (Mondal et al., [2006]). The reaction mixture (3 mL) containing sodium nitroprusside (10 mM) in phosphate-buffered saline (PBS) and the compounds in different concentrations (10, 20, 30, 40, 50 and 100 μg) were incubated at 25 °C for 150 min. At every 30-min interval, the incubated sample (0.5 mL) was removed and Griess reagent (1 % sulphanilamide, 0.1 % naphthylethylene diamine dihydrochloride in 2 % H3PO4) (0.5 mL) was added. The absorbance of the chromophore formed was measured at 546 nm. All the analyses were performed in triplicate, and the results were averaged. The percentage inhibition of nitric oxide generated was measured by comparing the absorbance values of control and test.

[7] = test system: BT474 (breast cancer cell line); assay: In vitro cytotoxicity by MTT assay, BT474; format: cell-based; conditions: Homo sapiens, 72 h; for cytotoxicity at 0.005 µM: BT-474, 0.005 μM; for cytotoxicity at 0.005 µM / cytotoxicity at 0.015 µM / cytotoxicity at 0.045 µM / cytotoxicity at 0.13 µM / cytotoxicity at 0.41 µM / cytotoxicity at 1.23 µM / cytotoxicity at 3.7 µM / cytotoxicity at 11.11 µM / cytotoxicity at 33.33 µM / cytotoxicity at 100 µM: read-out: % cytotoxicity (100 − % cell survival) of BT474 cell line; for cytotoxicity at 0.015 µM: BT-474, 0.015 μM; for cytotoxicity at 0.045 µM: BT-474, 0.045 μM; for cytotoxicity at 0.13 µM: BT-474, 0.13 μM; for cytotoxicity at 0.41 µM: BT-474, 0.41 μM; for cytotoxicity at 1.23 µM: BT-474, 1.23 μM; for cytotoxicity at 3.7 µM: BT-474, 3.7 μM; for cytotoxicity at 11.11 µM: BT-474, 11.11 μM; for cytotoxicity at 33.33 µM: BT-474, 33.33 μM; for cytotoxicity at 100 µM: BT-474, 100 μM
Procedure, shortened: as §1

Structure (SMILES) | IC50 [1] | cytotoxicity at 72 h, 0.005 µM [2] | cytotoxicity at 72 h, 0.015 µM [2] | cytotoxicity at 72 h, 0.045 µM [2] | cytotoxicity at 72 h, 0.13 µM [2] | cytotoxicity at 72 h, 0.41 µM [2] | cytotoxicity at 72 h, 1.23 µM [2] | cytotoxicity at 72 h, 3.7 µM [2] | cytotoxicity at 72 h, 11.11 µM [2] | cytotoxicity at 72 h, 33.33 µM [2] | cytotoxicity at 72 h, 100 µM [2] | cytotoxicity at 72 h, 0.015 µM [4] | cytotoxicity at 0.005 µM [5] | cytotoxicity at 0.045 µM [5] | cytotoxicity at 0.13 µM [5] | cytotoxicity at 0.41 µM [5] | cytotoxicity at 1.23 µM [5] | cytotoxicity at 3.7 µM [5] | cytotoxicity at 11.11 µM [5] | cytotoxicity at 33.33 µM [5] | also measured
O=C(NS(=O)(=O)c1nnc(N=Cc2ccc(Cl)cc2)s1)c1ccccc1 [Compound 9b, N-({5-[(4-Chlorobenzylidene)amino]-1,3,4-thiadiazol-2-yl}sulfonyl)benzamide] | 76.3 ± 11.8 µM | 33.2% | 34.1% | 34.6% | 36.6% | 37.7% | 38% | 38.2% | 38.6% | 38.9% | 40.7% | 29.5% | 27.8% | 35.4% | 35.7% | 36.1% | 36.5% | 36.6% | 37% | 37.7% | cytotoxic activity compared with all synthesized compounds [3]: more potent; cytotoxicity at 100 µM [5]: 38%; IC50 [6]: 52.6 ± 16.7 µM; melting point: 212 to 214 °C; cytotoxicity at 0.005 µM [7]: 38.8%; cytotoxicity at 0.015 µM [7]: 39.4%; cytotoxicity at 0.045 µM [7]: 41.5%; cytotoxicity at 0.13 µM [7]: 42%; cytotoxicity at 0.41 µM [7]: 46.1%; cytotoxicity at 1.23 µM [7]: 50.1%; cytotoxicity at 3.7 µM [7]: 56.3%; cytotoxicity at 11.11 µM [7]: 60.7%; cytotoxicity at 33.33 µM [7]: 62.3%; cytotoxicity at 100 µM [7]: 65%; CC50 ([7]; BT-474, BT474, concentration at which 50 % of the cells are dead, read-out: CTC50 (cytotoxicity concentration)): 2.41 µM
O=C(NS(=O)(=O)c1nnc(N=Cc2ccccc2O)s1)c1ccccc1 [Compound 9f, N-({5-[(2-Hydroxybenzylidene)amino]-1,3,4-thiadiazol-2-yl}sulfonyl)benzamide] | 36.7 ± 14.4 µM | 32.5% | 33.1% | 34% | 35.1% | 36.4% | 37.1% | 37.4% | 37.9% | 39.8% | 42.8% | 31.2% | 30.3% | 32.4% | 33.4% | 35% | 35.7% | 36.9% | 37.1% | 38.7% | cytotoxicity at 100 µM [5]: 40.4%; IC50 [6]: 38 ± 11.8 µM; melting point: 220 to 222 °C; cytotoxicity at 0.005 µM [7]: 30.6%; cytotoxicity at 0.015 µM [7]: 32.6%; cytotoxicity at 0.045 µM [7]: 33.9%; cytotoxicity at 0.13 µM [7]: 34.8%; cytotoxicity at 0.41 µM [7]: 34.8%; cytotoxicity at 1.23 µM [7]: 35.5%; cytotoxicity at 3.7 µM [7]: 35.8%; cytotoxicity at 11.11 µM [7]: 36.1%; cytotoxicity at 33.33 µM [7]: 38.2%; cytotoxicity at 100 µM [7]: 38.7%
